The target of one series is PDE5 (Homo sapiens, UniProt O76074). Description: Phosphodiesterase inhibition PDE-5 human. Format: biochemical. How it is done: (§1) Phosphodiesterase inhibition was determined by methods known to one of skill in the art.
Another series is described as follows: PAMPA permeability. Format: in vitro ADME.
The next series in a line: Cytotox GC50. Format: cell-based.
The nature of a further series: Solubility. Format: physicochemical.
Another series concerns Caco-2. Description: Caco-2 permeability. Format: in vitro ADME. An excerpt:
Several model systems are available, employing monolayers of various cell types, for evaluation of active transport of pharmaceutically active substances. For example, monolayers of Caco-2 intestinal epithelial cells can be used to evaluate active transport of substances between the intestine and the bloodstream. When plated on a surface which allows the flow of material from apical to basolateral and vice versa, such cells form a biological membrane which can be used to simulate physiological absorption and bio-availability. In another example, mouse brain capillary endothelial cell (MBEC) lines have been established to evaluate active transport in and out of the central nervous system. Another example of such cells is HT29 human colon carcinoma cells. Further, monolayers expressing particular transporter proteins can be established using transfected cells. For example, Sasaki et al (2002) J. Biol. Chem. 8:6497 used a double-transfected Madin-Darby canine kidney cell monolayer to study transport of organic anions.
Background: Caco-2 cells form a polarised layer with tight junctions and transporters.

Another series in a line: Non-specific binding. Format: in vitro ADME.
A short description of a further series: RLM stability T1/2. Format: in vitro ADME. Conditions: rat, liver microsomes.
The nature of the next series: Cytotox LC50. To be noted: read-out: Cytotox LC50 Acute.
Another series has as its target PDE-5 (Bos taurus, UniProt Q28156). The series can be described thus: Phosphodiesterase inhibition PDE-5 bovine. Format: biochemical. How it is done:
as §1

Setting [1] is: pH 2.7, aqueous buffer, read-out: Solubility pH 2.7.
Setting [2] is: pH 7.4, aqueous buffer, read-out: Solubility pH 7.4.

The structures appear in SMILES notation. Converted amounts (≈) assume the structure as drawn. Where two headings read alike, the source gives them in different places. Bounds are passed on as bounds.

The term IC50 denotes the point on the concentration scale where inhibition reaches its midpoint. Lower therefore signals greater potency. The solubility is the dissolved amount per volume that the medium holds. On to `CCCc1nc(C)c2c(=O)[nH]c(-c3cc(S(=O)(=O)N(C)[C@H](C)C(=O)NC)ccc3OCC)nn12` [Compound 14], for which it took 0.35 nM to reach half-maximal inhibition at PDE5 (IC50). Moreover, the “PAMPA Hex” value in the series “PAMPA permeability” is listed as 0.47 10^−6. In addition, the “Cytotox GC50” value in “Cytotox GC50” stood at 88.0 µM. Moreover, the solubility amounted to 62.6 µM (≈ 30.7 µg/mL) in the series “Solubility” (setting [1]) and 64 µM (≈ 31.4 µg/mL) in “Solubility” (setting [2]). The CC50 in “in vitro” is at least 100 µM.
Regarding `CCCc1nc(C)c2c(=O)[nH]c(-c3cc(S(=O)(=O)NC(C)(C)C(=O)N(C)C)ccc3OCC)nn12` [Compound 19], at PDE5, the IC50 was found to be 0.193 nM. Moreover, the “PAMPA Hex” value in the series “PAMPA permeability” was 0.17 10^−6. Moreover, the “Cytotox GC50” value in the series “Cytotox GC50” is 100 µM. Further, the solubility was over 100 µM in “Solubility” (setting [1]) and 7.1 µM (≈ 3.58 µg/mL) in the series “Solubility” (setting [2]). The “Caco-2 AtoB” value with Caco-2 is listed as 2.43 10^−6. The “Caco-2 BtoA” value in the series with Caco-2 is 33 10^−6. Further, in the series “in vitro”, the CC50 was at least 100 µM.
The half-life is the time needed for the level to fall by half in the phase considered. A lower half-life goes with rapid decline. For the molecule `CCCc1nc(C)c2c(=O)[nH]c(-c3cc(S(=O)(=O)N(C)CC(=O)N(CC)CC)ccc3OCC)nn12` [Compound 8], the IC50 against PDE5 came out at 0.78 nM. Moreover, the “Non-Spec Binding” value in “Non-specific binding” was 19%. In addition, in the series “PAMPA permeability”, the “PAMPA Hex” value was 21.81 10^−6. Further, in “RLM stability T1/2”, the half-life turned out to be 15 min. In addition, the solubility in the series “Solubility” (setting [1]) was over 100 µM. Further, the solubility in the series “Solubility” (setting [2]) was over 100 µM. For the same molecule, in the series with Caco-2, the “Caco-2 AtoB” value was 42.03 10^−6 and the “Caco-2 BtoA” value is recorded as 77.41 10^−6.
On PDE5, `CCCc1nc(C)c2c(=O)[nH]c(-c3cc(S(=O)(=O)N(C)[C@@H](C)C(=O)N(C)C)ccc3OCC)nn12` [Compound 12] yielded an IC50 of 0.298 nM. The “Non-Spec Binding” value in “Non-specific binding” was 30.7%. Also, the “PAMPA Hex” value in “PAMPA permeability” is on record as 13.93 10^−6. In addition, in “Cytotox GC50”, the “Cytotox GC50” value was 99.3 µM. The same molecule registered a half-life in “RLM stability T1/2” of 32.2 min. In addition, the solubility in the series “Solubility” (setting [1]) worked out at 96 µM (≈ 48.4 µg/mL); in “Solubility” (setting [2]), 100 µM (≈ 50.5 µg/mL). Also, the “Caco-2 AtoB” value in the series on Caco-2 is 33.39 10^−6. The “Caco-2 BtoA” value with Caco-2 was 50.43 10^−6. Also, the CC50 is 100 µM in “Cytotox LC50” and at least 100 µM in the series “in vitro”.
Regarding `CCCc1nc(C)c2c(=O)[nH]c(-c3cc(S(=O)(=O)N(C)C4(C(=O)N(C)C)CC4)ccc3OCC)nn12` [Compound 16], inhibition against PDE5 was half-maximal at 0.42 nM (IC50). The “PAMPA Hex” value in “PAMPA permeability” is reported as 3.41 10^−6. For the same molecule, the “Cytotox GC50” value in the series “Cytotox GC50” stood at 100 µM. For the same molecule, the results for the solubility in the series “Solubility” (setting [1]) and in the series “Solubility” (setting [2]) were 74.7 µM (≈ 38.6 µg/mL) and 82.5 µM (≈ 42.6 µg/mL), respectively. In “in vitro”, the CC50 was at least 100 µM.
As to `CCCc1nc(C)c2c(=O)[nH]c(-c3cc(S(=O)(=O)N(C)CC(=O)N(C)CCN(C)C)ccc3OCC)nn12` [Compound 9], half-maximal inhibition at PDE5 (IC50) required 1.5 nM. The “Non-Spec Binding” value in the series “Non-specific binding” was found to be 9.8%. In the series “PAMPA permeability”, the “PAMPA Hex” value is given as 0.03 10^−6. Besides, the solubility in “Solubility” (setting [1]) and in “Solubility” (setting [2]) was over 100 µM in each case. The “Caco-2 AtoB” value with Caco-2 is 2.33 10^−6. The “Caco-2 BtoA” value in the series on Caco-2 is on record as 11.31 10^−6.
`CCCc1nc(C)c2c(=O)[nH]c(-c3cc(S(=O)(=O)N[C@@H](C)C(=O)N(C)C)ccc3OCC)nn12` [Compound 17] displayed an IC50 on PDE5 of 0.66 nM. Moreover, the “PAMPA Hex” value in the series “PAMPA permeability” is 0.26 10^−6. For the same molecule, the “Cytotox GC50” value in the series “Cytotox GC50” is 100 µM. Further, the values for the solubility in the series “Solubility” (setting [1]) and in “Solubility” (setting [2]) were 70 µM (≈ 34.4 µg/mL) and 78.4 µM (≈ 38.5 µg/mL), respectively. Further, in the series “in vitro”, the CC50 is at least 100 µM.
The molecule `CCCc1nc(C)c2c(=O)[nH]c(-c3cc(S(=O)(=O)N[C@H](C)C(=O)N(C)C)ccc3OCC)nn12` [Compound 18] returned an IC50 against PDE5 of 0.36 nM. In “PAMPA permeability”, the “PAMPA Hex” value is 0.18 10^−6. Moreover, in “Cytotox GC50”, the “Cytotox GC50” value was 100 µM. Besides, the solubility in the series “Solubility” (setting [1]) stood at 70.3 µM (≈ 34.5 µg/mL); in the series “Solubility” (setting [2]) it was 75.8 µM (≈ 37.2 µg/mL). In addition, the CC50 in the series “in vitro” was at least 100 µM.
`CCCc1nc(C)c2c(=O)[nH]c(-c3cc(S(=O)(=O)N(C)C(C)(C)C(=O)NC)ccc3OCC)nn12` [Compound 15] gave an IC50 against PDE5 of 0.256 nM. Further, the “PAMPA Hex” value in the series “PAMPA permeability” is listed as 0.25 10^−6. Further, in “Cytotox GC50”, the “Cytotox GC50” value stood at 95.0 µM. Further, in the series with Caco-2, the “Caco-2 AtoB” value is recorded as 6.8 10^−6 and the “Caco-2 BtoA” value is 34.9 10^−6. In “in vitro”, the CC50 is at least 100 µM.
Consider `CCCc1nc(C)c2c(=O)[nH]c(-c3cc(S(=O)(=O)N4CCCC4C(=O)N(C)C)ccc3OCC)nn12` (stereo not shown) [Compound 5], for which the results for the half-maximal inhibitory concentration (IC50) against PDE5 and against PDE-5 were 2.3 nM and 1.6 nM, respectively. For the same molecule, the “PAMPA Hex” value in “PAMPA permeability” is on record as 13.18 10^−6. The same molecule registered a half-life in the series “RLM stability T1/2” of 30.1 min. For the same molecule, the solubility in the series “Solubility” (setting [1]) is 100 µM (≈ 51.7 µg/mL); in the series “Solubility” (setting [2]), 93 µM (≈ 48 µg/mL). For the same molecule, in the series with Caco-2, the “Caco-2 AtoB” value is listed as 19.4 10^−6. Also, the “Caco-2 BtoA” value with Caco-2 is 60.2 10^−6.
`CCCc1nc(C)c2c(=O)[nH]c(-c3cc(S(=O)(=O)N(C)CC(=O)N(C)CC(=O)N(C)C)ccc3OCC)nn12` [Compound 4]: the IC50 against PDE5 came to 0.11 nM; at PDE-5 it was 0.084 nM. Further, the “Non-Spec Binding” value in the series “Non-specific binding” was determined as 7%. Moreover, the “PAMPA Hex” value in the series “PAMPA permeability” was 0.47 10^−6. Further, in the series “PAMPA permeability” (Lec), the “PAMPA Lec” value was 0.056 10^−6. The half-life in “RLM stability T1/2” came to 64 min. The solubility was found to be 112 µM (≈ 62.9 µg/mL) in “Solubility” (setting [1]) and 109 µM (≈ 61.2 µg/mL) in the series “Solubility” (setting [2]). In the series with Caco-2, the “Caco-2 AtoB” value is 2.97 10^−6. The “Caco-2 BtoA” value in the series with Caco-2 is given as 25.95 10^−6.
On PDE5, `CCCc1nc(C)c2c(=O)[nH]c(-c3cc(S(=O)(=O)N(C)CC(=O)NC)ccc3OCC)nn12` [Compound 21] displayed a half-maximal inhibitory concentration (IC50) of 0.25 nM. Also, in the series “PAMPA permeability”, the “PAMPA Hex” value is on record as 0.24 10^−6. For the same molecule, in the series “Solubility” (setting [1]), the solubility is over 100 µM. Besides, the solubility in “Solubility” (setting [2]) was over 100 µM. Also, in the series on Caco-2, the “Caco-2 AtoB” value was 5.15 10^−6 and the “Caco-2 BtoA” value is on record as 31.45 10^−6.
With `CCCc1nc(C)c2c(=O)[nH]c(-c3cc(S(=O)(=O)N(C)[C@@H](C)C(=O)NC)ccc3OCC)nn12` [Compound 13], the IC50 at PDE5 was found to be 0.17 nM. Besides, in “PAMPA permeability”, the “PAMPA Hex” value is given as 0.42 10^−6. The “Cytotox GC50” value in the series “Cytotox GC50” was 94.0 µM. The solubility worked out at 69.4 µM (≈ 34 µg/mL) in “Solubility” (setting [1]) and 74.6 µM (≈ 36.6 µg/mL) in the series “Solubility” (setting [2]). Besides, the CC50 in “in vitro” is at least 100 µM.
In the case of `CCCc1nc(C)c2c(=O)[nH]c(-c3cc(S(=O)(=O)N(C)CC(=O)N4CCOCC4)ccc3OCC)nn12` [Compound 6], half-maximal inhibition against PDE5 (IC50) required 0.68 nM. In the series “Non-specific binding”, the “Non-Spec Binding” value was found to be 7.3%. The “PAMPA Hex” value in the series “PAMPA permeability” is reported as 0.78 10^−6. Further, the solubility in “Solubility” (setting [1]) is over 100 µM. The solubility in “Solubility” (setting [2]) is over 100 µM. In the series on Caco-2, the “Caco-2 AtoB” value was 11.16 10^−6 and the “Caco-2 BtoA” value is 55.15 10^−6.
Take `CCCc1nc(C)c2c(=O)[nH]c(-c3cc(S(=O)(=O)N(C)CC(=O)N4CCN(C)CC4)ccc3OCC)nn12` [Compound 7]: on PDE5, the half-maximal inhibitory concentration (IC50) came out at 0.535 nM. In the series “Non-specific binding”, the “Non-Spec Binding” value was 2.6%. Further, in “PAMPA permeability”, the “PAMPA Hex” value is listed as 0.18 10^−6. Moreover, the solubility in the series “Solubility” (setting [1]) was over 100 µM. The solubility in “Solubility” (setting [2]) is over 100 µM. For the same molecule, in the series on Caco-2, the “Caco-2 AtoB” value is given as 4.35 10^−6 and the “Caco-2 BtoA” value was 35.58 10^−6.
At PDE5, `CCCc1nc(C)c2c(=O)[nH]c(-c3cc(S(=O)(=O)N(CC)CC(=O)N(CC)CC)ccc3OCC)nn12` [Compound 10] returned a half-maximal inhibitory concentration (IC50) of 0.32 nM. The “PAMPA Hex” value in “PAMPA permeability” is 67.04 10^−6. The solubility was 77.9 µM (≈ 41.5 µg/mL) in “Solubility” (setting [1]) and 78.5 µM (≈ 41.8 µg/mL) in “Solubility” (setting [2]).

The values above are taken from US20100093719A1, “PHARMACOKINETICALLY IMPROVED COMPOUNDS” (SURFACE LOGIX, INC., priority 2005, published 2010).
